Results taken from patent publication US20200254050A1, “STABLE COMPOSITIONS OF NEUROACTIVE PEPTIDES” (Naurex Inc., priority 2014, published 2020).
Residues, ends and D or L forms follow the SMILES beside them.

Assay: pH stability study of GLYX-13 150 mg/mL HCl formulations (40° C., 3 weeks), HPLC assay and related substances
Format: physicochemical
Method: Column: Waters Spherisorb ODS2, 3 μm, 4.6×250 mm, Part # PSS832115
Mobile phase A: 2.2 g/L heptanesulfonic acid, 6.7 g/L potassium dihydrogen phosphate, pH 2.5
Mobile phase B: 70/30 Methanol/Water
Column temperature: 40±1° C.
Sample temperature: 4±1° C.
Four formulations were prepared to examine dissolution of the drug based (Table 2). Each formulation was prepared at 35 mL and contained 5.25 g of GLYX-13.
Each formulation was prepared by adding the drug to a beaker and adjusting the volume to approximately 26 mL using purified water. The pH was adjusted using 5 M HCl that was added in small increments. The solution was mixed for 10 minutes after each adjustment and mixed for 30 minutes after reaching the desired pH. The pH of the solution was checked after 30 minutes and adjusted if needed. The solution was adjusted to 35 mL using purified water when a drift in pH was no longer observed. Each formulation was filled into vials (2.5 mL/vial), sealed with a stopper, and capped. The formulations were stored at 40° C. for 3 weeks and samples were removed weekly. All weekly samples were examined for appearance, tested for pH, assay and related substances using the HPLC assay.
Data were analyzed using the appropriate software designed for the assay and impurities HPLC method. Impurity 1 (RRT 0.43) is cyclo-proline-threonine (“diketopiperazine”). Impurity 2 (RRT 0.57) is proline-threonine amide. […]

rate of impurity formation at pH 7, fold greater than the rate at pH 4: approximately 6 fold
SMILES: CC(O)C(N)C(=O)N1CCCC1C(=O)N1CCCC1C(=O)NC(C(N)=O)C(C)O (stereo not shown) [GLYX-13] (H-TPPT-NH2; configuration not given here)
